Test results as given in patent US20060129385A1, “Cholinergic therapy for individuals with learning disabilities” (priority 2002, published 2006).

Tests used:
[1] = system: individuals with Down's Syndrome; assay: Clinical Evaluation of Language Fundamentals-Revised (CELF-R), 24 week open study of donepezil; assay type: in vivo, human
Protocol: (§1) In the current study, we specifically examined the effects of donepezil and tested the hypothesis that expressive language performance in individuals with Down's Syndrome would improve with donepezil treatment. Language performance was measured with two objective measures, the Test of Problem Solving [Zachman et al., 1984] and the Clinical Evaluation of Language Fundamentals-Revised [Semel et al., 1986].
The Clinical Evaluation of Language Fundamentals-Revised (CELF-R: Semel et al., 1986]: The CELF-R is a diagnostic language test designed to assess language form and content, aspects of language generally regarded as fundamental to effective, oral—communication. Standardized expressive, receptive and overall language scores are derived from the summation of individual subtest scores. Typically, overall expressive and receptive language are evaluated by collapsing the subtest performance into a single receptive: or expressive language score. Individual subtest performance is analyzed for specific impairment within the broader expressive and receptive language domains. The instrument was standardized on 2,333 individuals (ages 5-0 to 16-11). Validity and reliability norms are available and adequate for each subtest.
(§2) Derivation of Language Level: Due to the absence of appropriate standardized measures for adults with DS, relative language level was determined by comparing subtest performance (raw scores) to the average performance level for five-year-olds. The five year-old level was selected because it is the lowest age level in which both tests provide normative data. For this study, TOPS performance was based on age equivalent scores.
(§3) Clinical Significance of Change: The clinical significance of the change in language performance following treatment was determined by comparing the difference in subject performance (between Baseline and treatment) to the amount of language improvement shown in one year by the average 5-year-old. For the TOPS, this index was the difference between the age equivalent score for children aged 5 years-0 months and the age equivalent score for children aged 6 years-0 months. For the CELF-R subtests, this index was difference between the mean raw scores for 5 year-olds and 6-year-olds.
Statistical Analyses: The main comparisons were changes from Baseline (week 0) assessed by repeated measures. […] Similarly, while we hypothesized an improvement in expressive language, the acceptable p-value was not adjusted to reflect a one-tailed analysis. P-values at or below 0.05 were viewed as significant. […] Across all measures, the performance gain between age 5 and age 6 is the highest rate of language gain recorded for any 12-month period.

[2] = system: individuals with Down's Syndrome
Protocol: Subjects: After obtaining IRB approval and written informed consent, 5 males and […] with DS (confirmed by karyotyping), between the ages of 20-41 years (mean age=29 years), were enrolled in the trial. All subjects were verbal, able to hear speech at conversational level, and able to ingest oral medication. […] All individuals were evaluated for thyroid disorders and for Vitamin B 12 deficiency within 6 months of entry into the trial. […] Subject IQs ranged from 40 to 60 (mean IQ=52). The IQs of four subjects were determined during the baseline visit because testing had not been performed in the last 10 years. The IQ's of the two youngest subjects were determined from school records.
Study Design: This was a 24 week open study at the General Clinical Outpatient Research Unit at Duke University in which subjects attended three sessions, Week 0 (Baseline), Week 12 (Treatment-12), and Week 24 (Termination). Due to scheduling limitations, the average first post-treatment visit was at Week 13 and the second post-treatment visit was at Week 25. A physical exam and language testing were completed at all sessions. A checklist for medication related adverse events was performed at Week 12 and at study termination. At the completion of the Baseline visit, donepezil was dosed orally at 5 mg once daily for 6 weeks. The dose was increased to 10 mg (two 5 mg tablets) daily for the remaining weeks if the 5 mg dose was well tolerated. This dosage schedule was based on experience from a previous trial [Kishnani et al 1999] and the donepezil package insert. Patients were monitored closely for safety and tolerability of the medication by regular phone calls in between scheduled visits. Two language measures were used, the Test of Problem Solving (TOPS) and the Clinical Evaluation of Language Fundamentals-Revised (CELF-R). The TOPS was completed at Baseline and at Weeks 12 and 24 of treatment. The CELF-R was completed at Baseline and at Week 24.

[3] = system: individuals with Down's Syndrome; assay: Test of Problem Solving (TOPS), 24 week open study of donepezil; assay type: in vivo, human
Protocol: as §1
Measures: The Test of Problem Solving [TOPS: Zachman et al., 1984]: The TOPS is an expressive language test that measures the ability to verbally identify reasonable solutions to problems presented via pictures. It has been used to assess pragmatic language ability in patients with AD. [Ripich et al., 1997]. The TOPS consists of 15 pictured scenarios with accompanying questions about each picture. The standard set of questions is designed to have the subject make inferences, to determine causes of particular events, to determine solutions to pictured problems, and to determine strategies for avoiding problems. The instrument was standardized on 1578 individuals (ages 6 years-0 months to 11 years-11 months). Age equivalent scores are provided for ages 3 years-5 months to 15 years-9 months. Validity and reliability data are available. TOPS raw scores for the overall [test as recommended by Powell, 1993] were determined by the average of two independent observers, one scoring onsite and a second scoring from audiotaped recordings of the test sessions.
as §2, §3
Statistical Analyses: The main comparisons were changes from Baseline (week 0) assessed by repeated measures. […] Similarly, while we hypothesized an improvement in expressive language, the acceptable p-value was not adjusted to reflect a one-tailed analysis. P-values at or below 0.05 were viewed as significant. Changes on standardized measures were viewed as clinically significant if the magnitude of the observed change was substantial in comparison to the level of performance gain typically achieved by children in the 12 month period between age 5 and age 6. Across all measures, the performance gain between age 5 and age 6 is the highest rate of language gain recorded for any 12-month period.

[4] = system: DS patients; settings: human, in vivo; cited from earlier work

With `COc1cc2c(cc1OC)C(=O)C(CC1CCN(Cc3ccccc3)CC1)C2` (stereo not shown) [donepezil] as the molecule, how does the “CELF-R subtests showing gains” value ([1]; following 24 weeks of donepezil treatment, n=5) read?
The value was 5 of 6.

And the “significance of CELF-R subtest differences from baseline levels” value ([1]; following 24 weeks of treatment, p=0.15-0.23 in three expressive subtests and Word Classes)?
The value was “None of the differences was significantly different”.

What about the “gain in language performance on the CELF-R subtests, High Language Group” value ([1]; individuals with higher language skills at Baseline, n=2, following treatment) of the same molecule?
Its value is “large gains”.

What about the “gain on the CELF-R language measures, Low Language Group” value ([1]; individuals with lower language skills at Baseline, n=3, following treatment) of the same molecule?
Its value is “little gain”.

And the “subjects with mild cases of diarrhea” value ([2]; at the 5 mg dosage, each case improved spontaneously)?
The value was “Five of six subjects”.

And the “subjects reporting a transient decrease in appetite” value ([2]; on the 10 mg dosage, six subjects)?
Its value is “one subject”.

And the “subjects reporting cramps for one day” value ([2]; six subjects)?
Its value is “One subject”.

And the “change in TOPS performance, Treatment-12 weeks vs. Termination” value ([3]; after 12 additional weeks of treatment (24 weeks), paired samples t=0.52, p=0.6313)?
Its value is “No change”.

And the “overall TOPS performance gain” value ([3]; after 12 weeks of treatment vs Baseline, oral 5 mg once daily for 6 weeks, then 10 mg daily, adults with DS, paired t=4.5, p=0.0107)?
Its value is 6.5.

And the “overall TOPS performance gain” value ([3]; after 24 weeks of treatment (Termination) vs Baseline, oral 5 mg then 10 mg daily, paired t=1.10, p=0.0513)?
Its value is 5.1.

What about the “clinical significance: overall TOPS performance gain relative to gain expected by the average five-year-old in one year of development” value ([3]; after treatment) of the same molecule?
The value was “more than one-half”.

What about the “performance on the TOPS, Baseline vs. Treatment-12 weeks” value ([3]; following 12 weeks of treatment, paired samples t=4.5, p=0.0107) of the same molecule?
The value was “significantly improved performance”.

What about the “adverse effect reported in DS patients” value [4] of the same molecule?
The value was “urinary incontinence”.
